Test results published in US5140025A, “Thienotricylene for the treatment of bronchial diseases” (BYK Gulden Lomberg Chemische Fabrik GmbH, priority 1987, dated 1992).

How the values were obtained:
M2 receptor (cardiac) = molecular target: T1, M2 receptor (cardiac) (Rattus norvegicus, UniProt P10980); test: Receptor affinity, electrically stimulated left atrium of the rat; details: agonist carbachol, Schild slope normalised to 1.00, read-out: pA2 ± SEM, M2 receptor (cardiac) (converted)
T1 construct: isolated, left atria of rats (male 250-350 g); from tissue; host or cells: rat left atrium (isolated, male rats 250-350 g)
T1 sequence (P10980 1-466): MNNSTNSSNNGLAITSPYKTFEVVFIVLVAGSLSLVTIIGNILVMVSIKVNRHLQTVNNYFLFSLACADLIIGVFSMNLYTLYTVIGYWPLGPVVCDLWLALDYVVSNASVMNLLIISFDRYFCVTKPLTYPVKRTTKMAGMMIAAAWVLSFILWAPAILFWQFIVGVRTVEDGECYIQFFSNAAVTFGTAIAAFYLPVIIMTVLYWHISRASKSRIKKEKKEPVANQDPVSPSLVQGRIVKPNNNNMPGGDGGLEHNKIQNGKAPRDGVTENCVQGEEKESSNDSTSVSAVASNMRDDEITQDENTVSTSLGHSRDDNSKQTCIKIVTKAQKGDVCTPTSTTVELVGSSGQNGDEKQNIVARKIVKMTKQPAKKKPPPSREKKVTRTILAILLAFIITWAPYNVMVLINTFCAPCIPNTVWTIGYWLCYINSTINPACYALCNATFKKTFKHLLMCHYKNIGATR
Source text: The affinity of (±)-4,9-dihydro-3-methyl-4-[(4-methyl-1-piperazinyl)-acetyl]-10H-thieno[3,4-b][1,5]benzodiazepin-10-one (telenzepine, compound 2 in Table 7) and its conformers [(+)-enantiomer=compound 1, (-)-enantiomer=compound 3] to muscarinic M1 (ganglionic type) and M2 (cardiac type) receptors was investigated by the following methods:
Electrically Stimulated Left Atrium of the Rat (Eltze et al., 1985, Europ. J. Pharmacol. 112, 211-224).
Isometric contractions (HSE force transducer, K-30; Watanabe Linear Corder Mark 5) of isolated, left atria of rats (male 250-350 g) were recorded in an organ bath (10 ml, Tyrode nutrient solution, 31° C., gassing with carbogen, initial tension of the organs 0.25 g) under electrical stimulation (HSE stimulator; hook-shaped Pt electrodes at the base of the bath and immersed, annular Pt electrodes 1 cm below the water surface of the bath; 7 V, 3 ms, 2 Hz). After an equilibration time of 30 minutes, cumulative dose/response curves of carbachol (10^-8 -10^-6 M, in the presence of the antagonist also up to 10^-5 or 10^-4 M) were recorded simultaneously on 4 organs in each case by the technique described by van Rossum (1963). The substance to be tested was added to the organ baths 20 minutes before application of the carbachol. The pauses between the individual dose/response curves were 30-45 minutes.
The Tyrode nutrient solution used had the following composition (mM): NaCl 130, KCl 2.0, CaCl2 ·2H2 O 1.8, MgCl2 ·6H2 O 0.98, NaHCO3 12.0, NaH2 PO4 0.42 and glucose monohydrate 5.6. pA2 values (-log of the molar dissociation constants of the competitive antagonist-receptor complex) were determined by linear regression using the Schild plot: pA2 =-log [B/(x-1)], (Arunlakshana and Schild, 1959).
Table 7 below gives pA2 values of the substances, for which the slope of the regression lines for theoretically competitive antagonism have been normalised to 1.00 (Tallarida et al., 1979).

[1] = test system: acetylcholine-induced bronchospasm; test: Acetylcholine-induced bronchospasm in anaesthetised, spontaneously breathing guinea pigs, intravenous administration; assay type: in vivo, guinea pig (Pirbright White); details: for Mean bronchospasmolytic activity, percentage increase of Vmaxe vs control spasm / Mean bronchospasmolytic activity, percentage increase of tidal volume (TV) vs control spasm: 0-60 min; for Mean bronchospasmolytic activity, percentage increase of Vmaxe vs control spasm / Mean bronchospasmolytic activity, percentage increase of tidal volume (TV) vs control spasm / Bronchospasmolytic activity, percentage increase of Vmaxe vs control spasm / Bronchospasmolytic activity, percentage increase of tidal volume (TV) vs control spasm: x±SEM, N=10; for Bronchospasmolytic activity, percentage increase of Vmaxe vs control spasm / Bronchospasmolytic activity, percentage increase of tidal volume (TV) vs control spasm: at 60 min
Source text: Effect of Intravenously Administered Telenzepine on Acetylchline-Induced Bronchospasms in Anaesthetised, Spontaneously Breathing Guinea Pigs
Method for simultaneously recording pharmacodynamic or toxic effects on interior sensitive receptors and the respiration of guinea pigs (U. Kilian, E. Muller, E. Ch. Dittmann and J. Hamacher, Arzneim.-Forsch. 28, 1699-1708, 1978).
Pirbright White, Interfauna (Tuttlingen), 350-450 g, male.
Ethylurethane 1.2 g/kg i.p. as 12.5% aqueous solution.
Pneumotachogram: Maximum flow velocities of the respiratory air during expiration (Vmaxe, "peak flow"), tidal volume (TV).
Acetylcholine as spasmogen, 0.2-0.3 μmol/kg i.v., dissolved in 0.9% NaCl.
-10 min control spasm, 0 min administration of substance, +2, +10, +20, +30, +60 min test spasms.
Determination of the effect of telenzepine on the parameters (mean and standard error of mean, n=10) and calculation of the bronchospasmolytic activity from this as percentage inhibition of the acetylcholine-induced decrease of Vmaxe and TV by means of time/effect curves. Computation of a dose/response curve of the mean bronchospasmolytic activity during the observation time (0-60 min) from the areas under the time/effect curves and reading of 1 h ED50 values. Determination of a dose/response curve of the bronchospasmolytic activity at time 60 min and reading ED50 values.

[2] = test system: modified Shay rat (lesion formation and acid secretion); test: Antiulcerogenic and secretion-inhibiting action on the modified Shay rat; assay type: in vivo
Source text: The excellent gastric protective action and the gastric secretion-inhibiting action of the compound (+)-4,9-dihydro-3-methyl-4-[(4-methyl-1-piperazinyl)-acetyl]-10H-thieno[3,4-b][1,5]benzodiazepin-10-one (=compound 1 in Table 8 below) in comparison with the corresponding (-)-enantiomer (=compound 3) and with the racemate (=compound 2) can be detected in studies on the modified Shay rat. The effect of the stated compounds after intravenous (i.v.) administration on the formation of lesions and the acid secretion in the modified Shay rat is shown in Table 8 below.
Ulcers are provoked in rats (female, 180-200 g, 4 animals per cage on high grids) which have fasted for 24 hours, by pylorus ligature (under diethyl ether anaesthesia) and oral administration of 100 mg/10 ml/kg of acetylsalicylic acid. The substances to be tested are administered intravenously (1 ml/kg) directly after the pylorus ligature. The wound is closed by means of Michel clamps. 4 hours afterwards, the animals are sacrificed under anaesthesia with ether by Atlas dislocation, and resection of the stomach.
The stomach is opened along the greater curvature and clamped to a cork sheet, the amount of secreted gastric juice (volume) is determined first and its HCl content (titration with sodium hydroxide solution) being determined subsequently. The number and size (=diameter) of ulcers present are determined using a stereomicroscope, under 10×magnification. The product of severity (according to the following point scale) and number of ulcers serves as an individual lesion index.
The reduction in the means lesion index of each treated group compared with the control group (=100%) serves as a measure of the antiulcerogenic effect. The ED50 is the dose which reduces the mean lesion index or the HCl secretion by 50% compared with the control.

M1 receptor (ganglionic) = test: Receptor affinity, electrically stimulated rabbit vas deferens in organ bath; details: vas deferens of the rabbit, agonist McN-A-343, Schild slope normalised to 1.00; listed as Compound 3
Protocol: Isometric contractions (HSE force transducer, K-30; tilt and zones, BD-9 chart recorder) of isolated seminal duct sections of rabbits (male, white New Zealand rabbits, 2.5-3.5 kg) were recorded in an organ bath (10 ml, 31° C., gassing with carbogen, initial tension of the organs 0.75 g) under electrical stimultion (HSE stimulator; hook-shaped Pt electrode 1 cm below the water surface of the bath; 30 V, 0.5 ms, 0.05 Hz). After an equilibration time of 30 minutes, cumulative dose/response curves of McN-A-343 (10^-7 -2×10^-6 M) were recorded simultaneously on 8 organ sections in each case (control curves), using the technique described by van Rossum (1963). After 3 control curves, a fixed concentration of the agonist (for example 5×10^-7, 10^-6, 3×10^-6, 10^-5 or 3×10^-5 M) per organ section was applied and, after stabilisation of the effect, increasing concentrations of the agonist to be tested were added. The nutrient solution used had the following composition (mM): NaCl 118, KCl 4.7, CaCl2 ·2H2 O 2.5, MgSO4 ·7H2 O 0.6, KH2 PO 4 1.2, NaHCO3 25.0 and glucose 11.1. In order to block α2 -adrenoreceptors, the nutrient solution additionally contained 10^-6 M yohimbine.

[3] = at time 60 min after administration, 60 min
[4] = modified Shay rat, i.v., interpolated dose, 4 h, N=24, listed as 3, 240 min

## Cc1scc2c1N(C(=O)CN1CCN(C)CC1)c1ccccc1NC2=O [(-)-telenzepine, (-)-4,9-dihydro-3-methyl-4-[(4-methyl-1-piperazinyl)-acetyl]-10H-thieno-[3,4-b][1,5]benzodiazepin-10-one]
M2 receptor (cardiac)
  Kb: 759 nM
[1]; 0.1 μmol/kg i.v.
  Mean bronchospasmolytic activity, percentage increase of Vmaxe vs control spasm: 2 ± 1%
  Mean bronchospasmolytic activity, percentage increase of tidal volume (TV) vs control spasm: 0 ± 2%
  Bronchospasmolytic activity, percentage increase of Vmaxe vs control spasm: 1 ± 1%
  Bronchospasmolytic activity, percentage increase of tidal volume (TV) vs control spasm: -3 ± 3%
[1]; 1 μmol/kg i.v.
  Mean bronchospasmolytic activity, percentage increase of Vmaxe vs control spasm: 17 ± 3%
  Mean bronchospasmolytic activity, percentage increase of tidal volume (TV) vs control spasm: 20 ± 5%
  Bronchospasmolytic activity, percentage increase of Vmaxe vs control spasm: 18 ± 3%
  Bronchospasmolytic activity, percentage increase of tidal volume (TV) vs control spasm: 22 ± 5%
[1]; 5 μmol/kg i.v.
  Mean bronchospasmolytic activity, percentage increase of Vmaxe vs control spasm: 65 ± 4%
  Mean bronchospasmolytic activity, percentage increase of tidal volume (TV) vs control spasm: 74 ± 4%
  Bronchospasmolytic activity, percentage increase of Vmaxe vs control spasm: 77 ± 5%
  Bronchospasmolytic activity, percentage increase of tidal volume (TV) vs control spasm: 88 ± 6%
[1]; 10 μmol/kg i.v.
  Mean bronchospasmolytic activity, percentage increase of Vmaxe vs control spasm: 79 ± 2%
  Mean bronchospasmolytic activity, percentage increase of tidal volume (TV) vs control spasm: 87 ± 2%
  Bronchospasmolytic activity, percentage increase of Vmaxe vs control spasm: 77 ± 3%
  Bronchospasmolytic activity, percentage increase of tidal volume (TV) vs control spasm: 89 ± 3%
[1]; 30 μmol/kg i.v.
  Mean bronchospasmolytic activity, percentage increase of Vmaxe vs control spasm: 89 ± 3%
  Mean bronchospasmolytic activity, percentage increase of tidal volume (TV) vs control spasm: 98 ± 3%
  Bronchospasmolytic activity, percentage increase of Vmaxe vs control spasm: 88 ± 4%
  Bronchospasmolytic activity, percentage increase of tidal volume (TV) vs control spasm: 94 ± 3%
[1]; [3]
  ED50 of bronchospasmolytic activity, TV: 2.0 μmol/kg i.v.
  ED50 of bronchospasmolytic activity, Vmaxe: 3.2 μmol/kg i.v.
[1]; doses between 0.1 and 1 μmol/kg i.v.
  onset of efficacy: significantly delayed
[1]; mean activity 0-60 min, 60 min
  ED50 of mean bronchospasmolytic activity, TV: 2.5 μmol/kg i.v.
  ED50 of mean bronchospasmolytic activity, Vmaxe: 3.1 μmol/kg i.v.
[2]; 3 mg (i.v.), footnote to the ED50 of HCl secretion
  Inhibition (of acid secretion) following 3 mg: 46%
[2]; [4]
  Gastric protective action, reduction of lesion index, about ED50: ~0.65 mg/kg i.v.
  Inhibition of acid secretion, reduction of HCl secretion, about ED50: ~3.0 mg/kg i.v.
M1 receptor (ganglionic)
  pA2 ± SEM, M1 receptor (ganglionic): 6.98 ± 0.14
